Measurements as given in PubChem BioAssay (NCI).
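Dose response: 5 concentrations. Exposure: 48 h. Format: 96-well plates. Endpoint: linear interpolation; highest concentration if not reached. GI50 is the concentration that inhibits growth by half. TGI denotes the concentration required for complete inhibition of growth.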

Tests used:
Experiment in all cases: NCI tumour cell line growth inhibition, 48 h
NCI-H460 lung = tested on: NCI-H460 lung
HOP-92 NSCLC = tested on: HOP-92 NSCLC
COLO 205 colon = tested on: COLO 205 colon
SK-MEL-2 melanoma = tested on: SK-MEL-2 melanoma
TK-10 renal = tested on: TK-10 renal
SF-268 CNS = tested on: SF-268 CNS
SF-539 CNS = tested on: SF-539 CNS
EKVX NSCLC = tested on: EKVX NSCLC
CAKI-1 renal = tested on: CAKI-1 renal
K-562 leukemia = tested on: K-562 leukemia

## CCOC(=O)C1=C(Nc2ccc(Br)cc2)OCC1=O
NCI-H460 lung
  TGI: > 100 µM
HOP-92 NSCLC
  TGI: > 100 µM
COLO 205 colon
  TGI: > 100 µM
SK-MEL-2 melanoma
  TGI: > 100 µM
TK-10 renal
  TGI: > 100 µM
SF-268 CNS
  TGI: > 100 µM
SF-539 CNS
  TGI: > 100 µM
EKVX NSCLC
  TGI: > 100 µM
CAKI-1 renal
  TGI: > 100 µM

## O=[N+]([O-])c1ccc(Sc2c3ccccc3nc3ccccc23)cn1
NCI-H460 lung
  TGI: > 100 µM
HOP-92 NSCLC
  TGI: 16.9 µM
K-562 leukemia
  TGI: 6.66 µM
COLO 205 colon
  TGI: 10.4 µM
SK-MEL-2 melanoma
  TGI: 48.1 µM
TK-10 renal
  TGI: 28.6 µM
SF-268 CNS
  TGI: 52.4 µM
SF-539 CNS
  TGI: > 20.5 µM
EKVX NSCLC
  TGI: > 86.2 µM
CAKI-1 renal
  TGI: 11.7 µM

## CC1CCC(C(C)(C)c2ccccc2)C(=O)C1 (stereo not drawn)
NCI-H460 lung
  TGI: > 100 µM
HOP-92 NSCLC
  TGI: > 100 µM
K-562 leukemia
  TGI: > 100 µM
COLO 205 colon
  TGI: > 100 µM
SK-MEL-2 melanoma
  TGI: > 100 µM
TK-10 renal
  TGI: > 100 µM
SF-268 CNS
  TGI: > 100 µM
SF-539 CNS
  TGI: > 100 µM
EKVX NSCLC
  TGI: > 100 µM
CAKI-1 renal
  TGI: > 100 µM

## COc1ccc2c(c1)C(C)Cc1c(ncnc1-n1cnc3ccccc31)N2C (stereo not drawn)
NCI-H460 lung
  GI50: 0.397 µM
  TGI: 11.4 µM
HOP-92 NSCLC
  GI50: 0.441 µM
  TGI: 8.23 µM
K-562 leukemia
  GI50: 0.384 µM
  TGI: > 100 µM
COLO 205 colon
  GI50: 0.33 µM
  TGI: 1.37 µM
SK-MEL-2 melanoma
  GI50: 0.357 µM
  TGI: 24.6 µM
TK-10 renal
  GI50: 0.793 µM
  TGI: 37.1 µM
SF-268 CNS
  GI50: 0.822 µM
  TGI: 18.1 µM
SF-539 CNS
  GI50: 0.251 µM
  TGI: 0.774 µM
EKVX NSCLC
  GI50: 0.632 µM
  TGI: 20 µM
CAKI-1 renal
  GI50: 0.373 µM
  TGI: 17.2 µM

## CS(=O)(=O)CS(=O)(=O)OCCCl
NCI-H460 lung
  TGI: 448 µM
HOP-92 NSCLC
  TGI: 824 µM
K-562 leukemia
  TGI: 3120 µM
COLO 205 colon
  TGI: 831 µM
SK-MEL-2 melanoma
  TGI: 856 µM
TK-10 renal
  TGI: 1280 µM
SF-268 CNS
  TGI: 990 µM
SF-539 CNS
  TGI: 266 µM
EKVX NSCLC
  TGI: 1080 µM
CAKI-1 renal
  TGI: 799 µM

## COC(=O)[C@]12CC[C@@H](C)[C@H](C)[C@@H]1C1=CC[C@@H]3[C@@]4(C)C(C=O)=C[C@@](C)(COC(=O)c5ccco5)[C@@H]4[C@H](O)C[C@@]3(C)[C@]1(C)CC2
NCI-H460 lung
  GI50: 2.51 µM
  TGI: 6.3 µM
HOP-92 NSCLC
  GI50: 1.56 µM
  TGI: 4.27 µM
K-562 leukemia
  GI50: 2.96 µM
  TGI: 9.96 µM
COLO 205 colon
  GI50: 0.0493 µM
  TGI: 0.355 µM
SK-MEL-2 melanoma
  GI50: 0.423 µM
  TGI: 1.9 µM
TK-10 renal
  GI50: 2.04 µM
  TGI: 9.32 µM
SF-268 CNS
  GI50: 2.66 µM
  TGI: 12.6 µM
SF-539 CNS
  GI50: 1.89 µM
  TGI: 3.93 µM
EKVX NSCLC
  GI50: 3.02 µM
  TGI: 13.8 µM
CAKI-1 renal
  GI50: 2.86 µM
  TGI: > 100 µM

## Cc1c2c(C(N)=O)nccc2c(C)c2c1c1ccccc1n2Cc1ccccc1
NCI-H460 lung
  TGI: 28.8 µM
HOP-92 NSCLC
  TGI: 25.1 µM
K-562 leukemia
  TGI: 45.7 µM
SK-MEL-2 melanoma
  TGI: 43.3 µM
TK-10 renal
  TGI: 35.5 µM
SF-268 CNS
  TGI: 97.5 µM
SF-539 CNS
  TGI: 37.7 µM
EKVX NSCLC
  TGI: > 100 µM
CAKI-1 renal
  TGI: 59 µM

## C1=NC(N(Cc2ccccc2)Cc2ccccc2)N(Cc2ccccc2)N1 (stereo not drawn)
NCI-H460 lung
  TGI: 37.2 µM
HOP-92 NSCLC
  TGI: 25.6 µM
K-562 leukemia
  TGI: 43.9 µM
COLO 205 colon
  TGI: 30.8 µM
SK-MEL-2 melanoma
  TGI: 31.8 µM
TK-10 renal
  TGI: 86.4 µM
SF-268 CNS
  TGI: 47.4 µM
SF-539 CNS
  TGI: 29.5 µM
EKVX NSCLC
  TGI: 56.2 µM
CAKI-1 renal
  TGI: 46.1 µM

## COc1ccc(-c2cc(Nc3ccnc(N4CCOCC4)n3)on2)cc1
NCI-H460 lung
  GI50: 0.24 µM
  TGI: 10.4 µM
HOP-92 NSCLC
  GI50: 3.46 µM
  TGI: 22.5 µM
K-562 leukemia
  GI50: 0.047 µM
  TGI: 20.9 µM
COLO 205 colon
  GI50: 0.239 µM
  TGI: 1.53 µM
SK-MEL-2 melanoma
  GI50: 0.457 µM
  TGI: 29.5 µM
TK-10 renal
  GI50: 10.9 µM
  TGI: 24.9 µM
SF-268 CNS
  GI50: 1.85 µM
  TGI: 18.1 µM
SF-539 CNS
  GI50: 0.264 µM
  TGI: 1.16 µM
EKVX NSCLC
  GI50: 0.685 µM
  TGI: 17 µM
CAKI-1 renal
  GI50: 0.089 µM
  TGI: 18.7 µM
